Assay results published in ChEMBL document CHEMBL1201862, “PubChem BioAssay data set” (2004).
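All cell lines were grown in 96-well plates and treated with compound for 48 hours. GI50: concentration for 50% inhibition of growth.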 Active and inactive are the calls of the source. No stated cut-off is given here; in the data, active = GI50 up to about 1.1 µM and inactive = higher.

Legend:
Assay in all cases: NCI tumour cell line growth inhibition, 48 h
A498 = tested on: A498
Hs-578T = tested on: Hs-578T
SF-539 = tested on: SF-539
UACC-257 = tested on: UACC-257
786-0 = tested on: 786-0
MDA-MB-231 = tested on: MDA-MB-231
SK-MEL-5 = tested on: SK-MEL-5
SW-620 = tested on: SW-620
NCI-H522 = tested on: NCI-H522
SF-295 = tested on: SF-295
CAKI-1 = tested on: CAKI-1
U-251 = tested on: U-251
T47D = tested on: T47D
SNB-19 = tested on: SNB-19
A549 = tested on: A549
HCT-15 = tested on: HCT-15
SK-OV-3 = tested on: SK-OV-3
UO-31 = tested on: UO-31
KM12 = tested on: KM12

Row | SMILES | GI50 (A498) | GI50 (Hs-578T) | GI50 (SF-539) | GI50 (UACC-257) | GI50 (786-0) | GI50 (MDA-MB-231) | GI50 (SK-MEL-5) | GI50 (SW-620) | GI50 (NCI-H522) | GI50 (SF-295) | GI50 (CAKI-1) | GI50 (U-251) | GI50 (T47D) | GI50 (SNB-19) | GI50 (A549) | GI50 (HCT-15) [µM] | GI50 (SK-OV-3) | GI50 (UO-31) | GI50 (KM12)
1 | Cc1cc(=O)oc2cc(OS(C)(=O)=O)ccc12 | > 100 µM (inactive) | > 100 µM (inactive) | > 100 µM (inactive) | > 100 µM (inactive) | > 100 µM (inactive) | > 100 µM (inactive) | > 100 µM (inactive) | > 100 µM (inactive) | > 100 µM (inactive) | > 100 µM (inactive) | > 100 µM (inactive) | > 100 µM (inactive) | > 100 µM (inactive) | > 100 µM (inactive) | > 100 µM (inactive) | > 100 |  |  | 
2 | O=C(c1ccc(Cl)cc1)N(C(=S)OCCOc1ccccc1)c1ccccc1 | 14.9 µM (inactive) | 46.9 µM (inactive) | 18.9 µM (inactive) | 18.7 µM (inactive) | 18.7 µM (inactive) | 23.1 µM (inactive) |  | 19.1 µM (inactive) | 19.1 µM (inactive) | 27.6 µM (inactive) | 17.4 µM (inactive) | 16.2 µM (inactive) | 20 µM (inactive) | 19.2 µM (inactive) | 16.3 µM (inactive) | 19.3 | 36.1 µM (inactive) | 0.186 µM (active) | 19.1 µM (inactive)
3 | Cc1c(C(=O)c2ccccc2)[n+]([O-])c2cc(Cl)c(Cl)cc2[n+]1[O-] | 19.6 µM (inactive) | 6.34 µM (inactive) | 17.2 µM (inactive) | 3.17 µM (inactive) | 15.8 µM (inactive) | 11.1 µM (inactive) | 15.2 µM (inactive) |  |  | 14.9 µM (inactive) | 3.03 µM (inactive) | 15.6 µM (inactive) | 0.889 µM (active) | 16.6 µM (inactive) | 13 µM (inactive) | 1.99 | 19.6 µM (inactive) | 11.8 µM (inactive) | 8.65 µM (inactive)
4 | C#CCCOC1(OC)N=NC(C)(C)O1 (centres undefined) | > 100 µM (inactive) | > 100 µM (inactive) | > 100 µM (inactive) | > 100 µM (inactive) | > 100 µM (inactive) | > 100 µM (inactive) | > 100 µM (inactive) | > 100 µM (inactive) | > 100 µM (inactive) | > 100 µM (inactive) |  | > 100 µM (inactive) | > 100 µM (inactive) | > 100 µM (inactive) | > 100 µM (inactive) | > 100 |  | > 100 µM (inactive) | > 100 µM (inactive)
5 | CC(CSc1nc2c(c(=N)n1-c1ccccc1)c(=S)n(-c1ccccc1)c(=S)n2-c1ccccc1)CN(C)C (centres undefined) | 2.8 µM (inactive) | 2.5 µM (inactive) | 3.05 µM (inactive) | 1.79 µM (inactive) | 1.15 µM (inactive) | 1.87 µM (inactive) | 2.05 µM (inactive) | 1.79 µM (inactive) | 1.11 µM (active) | 6.22 µM (inactive) | 1.61 µM (inactive) | 1.82 µM (inactive) | 2.67 µM (inactive) | 4.65 µM (inactive) | 1.82 µM (inactive) | 1.55 | 4.06 µM (inactive) |  | 2.25 µM (inactive)
6 | COc1cccc(/C=C/C2=NN(c3cccc(S(=O)(=O)O)c3)C3(C2)SCC(=O)N3c2nc3ccccc3s2)c1 (centres undefined) | 33 µM (inactive) | 32.7 µM (inactive) | 17.1 µM (inactive) | 85.7 µM (inactive) | 21 µM (inactive) | 36.1 µM (inactive) | 36 µM (inactive) | 47.9 µM (inactive) | 14.7 µM (inactive) |  | 50.9 µM (inactive) | 30.5 µM (inactive) | 16.1 µM (inactive) | 52.5 µM (inactive) | 60.3 µM (inactive) | 53.5 |  | 34.9 µM (inactive) | 32 µM (inactive)
7 | COc1ccc(OCC(=N/NC(=O)c2ccncc2)/N=C/c2cccnc2)cc1 | 65.3 µM (inactive) | 57.9 µM (inactive) | 64.3 µM (inactive) | > 100 µM (inactive) | > 100 µM (inactive) | > 100 µM (inactive) |  | 53.1 µM (inactive) | 13.1 µM (inactive) | 84.7 µM (inactive) | > 100 µM (inactive) | > 100 µM (inactive) | > 100 µM (inactive) | > 100 µM (inactive) | 92.9 µM (inactive) | 60.7 | > 100 µM (inactive) |  | 50.9 µM (inactive)
8 | CCOc1ccc2c(C)cc(=O)oc2c1 | > 100 µM (inactive) | > 100 µM (inactive) | > 100 µM (inactive) | > 100 µM (inactive) | > 100 µM (inactive) | > 100 µM (inactive) | > 100 µM (inactive) | > 100 µM (inactive) | > 100 µM (inactive) | > 100 µM (inactive) | > 100 µM (inactive) | > 100 µM (inactive) | > 100 µM (inactive) | > 100 µM (inactive) | > 100 µM (inactive) | > 100 |  | > 100 µM (inactive) | > 100 µM (inactive)
9 | COc1cc(/C=C2\N=C(c3ccccc3)N(C3Nc4cc5c(cc4S3)NC(N3C(=O)/C(=C/c4cc(OC)c(OC)c(OC)c4)N=C3c3ccccc3)S5)C2=O)cc(OC)c1OC (centres undefined) | 68.4 µM (inactive) | > 100 µM (inactive) | 42 µM (inactive) | > 100 µM (inactive) | 61.1 µM (inactive) | > 100 µM (inactive) | 64.9 µM (inactive) | > 100 µM (inactive) | 60.3 µM (inactive) | 83.6 µM (inactive) | 39.9 µM (inactive) | 45.2 µM (inactive) | 56.2 µM (inactive) |  | 23.6 µM (inactive) | 57.5 |  | 54.1 µM (inactive) | 89.3 µM (inactive)
10 | O=C1c2ccccc2C2(c3ccc(Cl)cc3)N[C@@H]3CCCC[C@@H]3N12 (some centres undefined) | > 100 µM (inactive) | > 100 µM (inactive) | > 100 µM (inactive) | > 100 µM (inactive) | > 100 µM (inactive) | > 100 µM (inactive) | > 100 µM (inactive) | > 100 µM (inactive) |  | > 100 µM (inactive) | > 100 µM (inactive) | > 100 µM (inactive) | > 100 µM (inactive) | > 100 µM (inactive) | > 100 µM (inactive) | > 100 | > 100 µM (inactive) | > 100 µM (inactive) | > 100 µM (inactive)
11 | CC(NC(=O)C1(N)CCCC1)C(=O)O (centres undefined) | > 100 µM (inactive) | > 100 µM (inactive) |  | > 100 µM (inactive) | > 100 µM (inactive) | > 100 µM (inactive) | > 100 µM (inactive) | > 100 µM (inactive) | > 100 µM (inactive) | > 100 µM (inactive) | > 100 µM (inactive) | > 100 µM (inactive) | > 100 µM (inactive) | > 100 µM (inactive) | > 100 µM (inactive) | > 100 | > 100 µM (inactive) | > 100 µM (inactive) | > 100 µM (inactive)
12 | N=C(N)N/N=C/c1c(-c2cc([N+](=O)[O-])c(Cl)cc2Cl)nc2n1CCS2 | 77.3 µM (inactive) | 27.9 µM (inactive) | 42.5 µM (inactive) | 20.7 µM (inactive) | 32.4 µM (inactive) | 24.1 µM (inactive) | 29.9 µM (inactive) | 3.97 µM (inactive) | 17 µM (inactive) | 25.6 µM (inactive) | 40 µM (inactive) | 3.21 µM (inactive) | 2.47 µM (inactive) | 3.87 µM (inactive) | 32.7 µM (inactive) | 47 |  | 18.2 µM (inactive) | 4.83 µM (inactive)
